How the values were obtained:
[1] = system: MCF7 human breast tumor cells; experiment: CellTiter-Glo luminescent cell viability assay, MCF7; assay type: cell-based; settings: 48 hours, 20 to 0.1 μM
Method: (§1) Cell viability of either MCF7 human breast tumor cells (American Type Culture Collection catalog #HTB 22) or NCI-H929 human plasmacytoma cells (ATCC catalog #CRL-9068) was assessed using the Promega CellTiter-Glo luminescent cell viability assay according to manufacturer's instructions. In brief, cells were plated at 10,000 cells per well in a clear bottom white 96 well microtiter plate (Costar catalog #3604) in 100 μL of cell growth medium. Compounds were then added to the cells to give final concentrations of compound ranging from 20 to 0.1 μM. Cells were incubated 48 hours after which 100 μL per well of celltiter-glo reagent was added and luminescence was measured in a BMG polarstar plate luminometer. A plot of counts per minute versus log concentration of compounds was fitted to a sigmoidal dose response curve using Graphpad Prism software to generate IC50 values.

[2] = target: T1, human IGF1R kinase domain (Homo sapiens, UniProt P08069); experiment: IGF1R tyrosine phosphorylation inhibition, Alphascreen phosphotyrosine PT66 assay; assay type: biochemical; settings: recombinant kinase domain, 1 hour co-incubation, 20 to 0.1 μM
T1 construct: human IGF1R precursor protein corresponding to the amino acids positions 974 through 1293; 6xHis; made in house; host or cells: SF9 insect cells, recombinant baculovirus (Bac-to-Bac System)
T1 sequence (P08069 974-1293): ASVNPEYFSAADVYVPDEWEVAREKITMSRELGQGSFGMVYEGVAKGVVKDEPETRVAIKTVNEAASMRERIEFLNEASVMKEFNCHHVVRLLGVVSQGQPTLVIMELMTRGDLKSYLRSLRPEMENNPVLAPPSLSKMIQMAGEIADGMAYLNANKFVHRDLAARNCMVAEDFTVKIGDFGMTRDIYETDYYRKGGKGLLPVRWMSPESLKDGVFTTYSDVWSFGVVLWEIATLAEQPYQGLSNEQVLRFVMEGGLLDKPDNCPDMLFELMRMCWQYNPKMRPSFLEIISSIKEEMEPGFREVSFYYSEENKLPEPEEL
Method: Inhibition of IGF1R tyrosine phosphorylation was measured in the Alphascreen phosphotyrosine PT66 assay kit (Perkin Elmer Life sciences, Catalog number 6760602) according to the manufacturer's instructions. As a source of enzymatically active IGF1r kinase for this assay, SF9 insect cells were infected with recombinant baculovirus (Bac-to-Bac System, Invitrogen, Carlsbad, Calif.) encoding 6×His-tagged kinase domain portion of human IGF1R precursor protein corresponding to the amino acids positions 974 through 1293 (Abbott et al., 1992, J. Biol. Chem. 267:10759-10763) and recombinant kinase protein was purified to homogeneity using two-step chromatography on immobilized Ni^2+ resin (Ni-NTA) and ion-exchange Q-Sepharose column. Biotinylated poly glu-tyr 4:1 (CIS bio-international, catalog number 61GT0BLA) was used for the kinase substrate. Compounds were serially diluted to give a concentration range from 20 to 0.1 μM and co-incubated with IGF1r kinase, biotinylated peptide substrate and alphascreen components for 1 hour and then read in a Perkin-Elmer alphafusion plate reader. A plot of counts per minute versus log concentration of compounds was fitted to a sigmoidal dose response curve using Graphpad Prism software to generate IC50 values (see FIG. 1 for an example).

[3] = system: NCI-H929 human plasmacytoma cells; experiment: CellTiter-Glo luminescent cell viability assay, NCI-H929; assay type: cell-based; settings: 48 hours, 20 to 0.1 μM
Method: as §1

SMILES | IC50 [1] [µM] | IC50 [2] [µM] | IC50 [3] [µM]
CN1CCCC2(CCCN(CCc3ccc(NC(=O)c4ccc5nc(-c6cc(-c7cccnc7O)ccc6O)[nH]c5c4)cc3)C2)C1 (stereo not drawn) [drawing 1788] | 10 to 15 | ≤ 5 | ≤ 5
CCN1CCC2(CCN(c3cc(C)c4nc(-c5c(NC[C@@H](O)c6cccc(Cl)c6)cc[nH]c5=O)[nH]c4c3)C2)C1 (stereo partly drawn) | 5 to 10 | ≤ 5 | ≤ 5
CN1CCN(c2ccc3nc(-c4cc(-c5ccccc5)ccc4O)[nH]c3c2)CC1 | > 25 | ≤ 5 | 10 to 15
CN1CCN(c2ccc3nc(-c4cc(-c5ccc(N(C)C)cc5)ccc4O)[nH]c3c2)CC1 | 10 to 15 | ≤ 5 | 5 to 10
COc1ccc2c(c1)OCc1cnc(-n3cc(C(=O)NCCCc4ccncc4)c(N)n3)nc1-2 | 10 to 15 | 10 to 15 | 10 to 15
COc1ncccc1-c1ccc2[nH]c(-c3nc4cc(C(=O)Nc5ccc(CCN6CCN(C)CC6)cc5)ccc4[nH]3)nc2c1 | 10 to 15 | ≤ 5 | ≤ 5

From patent US8629147B2, “Heterocyclic compounds useful in the treatment of neoplastic diseases, inflammatory disorders and immunomodulatory disorders” (ChemBridge Corporation, priority 2005, dated 2014)
